Active and inactive are the calls of the source. How the calls were made is not given here.
Columns and labels:
[1] = Selectivity index, CC50 for MDBK cells/EC50 for BVDV NADL; type: functional
[2] = tested on: Bovine viral diarrhea virus 1; test: Antiviral activity against BVDV NADL in MDBK cells; type: functional, organism-based; conditions: Bovine viral diarrhea virus isolates and strains
[3] = Cytotoxicity against MDBK cells; type: cell-based, Bos taurus; conditions: cattle
Hepatitis C virus = test: Antiviral activity against HCV 1a; type: functional, organism-based; conditions: Hepacivirus hominis; subtype 1a

| SMILES | Ratio CC50/EC50 [1] | EC50 [2] | CC50 [3] | Activity (Hepatitis C virus) |
| --- | --- | --- | --- | --- |
| Fc1cccc(F)c1Cn1cccc2nc(-c3c(F)cccc3F)nc1-2 | <=3 | ≥ 32 µM | > 100 µM | inactive |
| CC(C)(C)c1ccc(Cn2ccc3nc(-c4ccccc4)nc-3c2)cc1 | 45 | 0.49 µM | 22 µM | inactive |
| c1ccc(CCCn2ccc3nc(-c4ccccc4)nc-3c2)cc1 | >143 | 0.7 µM | > 100 µM | inactive |
| Clc1ccc(Cn2ccc3nc(-c4ccccc4)nc-3c2)s1 | >476 | 0.21 µM | > 100 µM | inactive |
| CC(C)CCn1ccc2nc(-c3ccccc3)nc-2c1 | >26 | 3.8 µM | > 100 µM | inactive |
| Fc1cccc(F)c1-c1nc2ccn(Cc3ccccc3)cc-2n1 | >25 | 4 µM | > 100 µM | inactive |
| O=C(O)c1ccc(Cn2ccc3nc(-c4ccccc4)nc-3c2)cc1 |  | > 100 µM | > 100 µM | inactive |
| Fc1ccc(Cn2ccc3nc(-c4ccccc4)nc-3c2)cc1 | >833 | 0.12 µM | > 100 µM | inactive |
| Cc1ccc(Cn2ccc3nc(-c4ccccc4)nc-3c2)cc1 | >769 | 0.13 µM | > 100 µM | inactive |
| Clc1ccc(Cn2ccc3nc(-c4ccccc4)nc-3c2)cc1Cl | 645 | 0.11 µM | 71 µM | inactive |
| CC(c1ccccc1)n1ccc2nc(-c3ccccc3)nc-2c1 (stereo unspecified) | >48 | 2.1 µM | > 100 µM | inactive |
| Ic1ccc(Cn2ccc3nc(-c4ccccc4)nc-3c2)cc1 | 183 | 0.12 µM | 22 µM | inactive |
| FC(F)(F)c1ccc(Cn2ccc3nc(-c4ccccc4)nc-3c2)cc1 | 455 | 0.22 µM | 84 µM | inactive |
| Brc1ccc(Cn2ccc3nc(-c4ccccc4)nc-3c2)cc1 | 1186 | 0.07 µM |  | inactive |
| Cc1cccc(Cn2ccc3nc(-c4ccccc4)nc-3c2)c1 | >167 | 0.6 µM | > 100 µM | inactive |
| Cc1ccn(Cc2c(F)cccc2F)c2nc(-c3c(F)cccc3F)nc1-2 | <=1.1 | ≥ 88 µM | > 100 µM | inactive |
| c1ccc(-c2nc3ccn(CC4CCCCC4)cc-3n2)cc1 | >118 | 0.85 µM | > 100 µM | inactive |
| Fc1cccc(F)c1Cn1c(-c2c(F)cccc2F)nc2cnccc21 | >6 | 16.2 µM | > 100 µM | inactive |
| N#Cc1cccc(Cn2ccc3nc(-c4ccccc4)nc-3c2)c1 | >25 | 4 µM | > 100 µM | inactive |
| c1ccc(Cn2ccc3nc(-c4ccccc4)nc-3c2)cc1 | >400 | 0.25 µM | > 100 µM | inactive |
| Fc1cccc(F)c1Cn1ccc2nc(-c3c(F)cccc3F)nc-2c1 | >65 | 1.5 µM | > 100 µM | inactive |
| Fc1cccc(F)c1-c1nc2ccn(CCc3ccccc3)cc-2n1 | >2 | 57 µM | > 100 µM | inactive |
| FC(F)(F)c1ccccc1Cn1ccc2nc(-c3ccccc3)nc-2c1 | >67 | 1.5 µM | > 100 µM | inactive |
| FC(F)(F)c1cccc(Cn2ccc3nc(-c4ccccc4)nc-3c2)c1 | 408 | 0.24 µM | 98 µM | inactive |
| Brc1ccccc1Cn1ccc2nc(-c3ccccc3)nc-2c1 | >357 | 0.28 µM | > 100 µM | inactive |
| CC(C)N(CCn1ccc2nc(-c3ccccc3)nc-2c1)C(C)C | >45 | 2.2 µM | > 100 µM | inactive |
| Fc1ccccc1Cn1ccc2nc(-c3ccccc3)nc-2c1 | >1000 | 0.1 µM | > 100 µM | inactive |

From ChEMBL document CHEMBL1137252, “Substituted 5-benzyl-2-phenyl-5H-imidazo[4,5-c]pyridines: a new class of pestivirus inhibitors” (Bioorg Med Chem Lett, 2006)
